Laboratory results: patent publication US7863337B2, “Use of triacontanol in preparation of medicaments for treatment of cancers” (priority 2006, dated 2011)

Legend:
[1] = Effect to the thymus index and spleen index of murine by gavaging a triacontanol oil agent; type: in vivo; conditions: tumor-bearing mice
[2] = test system: murine hepatoma H22; test: Curative effect test against murine hepatoma H22 (inoculated under the armpit) by gavaging a triacontanol oil agent; type: in vivo, mice
Description: (§1) Experiment method: […] of the tumor models of murine hepatoma H22, intestinal cancer C26 and Lewis lung cancer by hypodermic inoculating in the murine in vivo
(§2) A cancer cell suspension is prepared from the tumor source by homogenate technique, and then is inoculated subcutaneously under the armpit. After 24 hours, medication is administrated according to a predesigned scheme, and finally, an inhibition rate statistic against the tumor is obtained by comparing with a negative control group.

[3] = test system: murine hepatoma H22; test: Curative effect test against murine hepatoma H22 by gavaging a thixotropic oil suspension of triacontanol; type: in vivo, mice
Description: as §1, §2

[4] = test system: Lewis lung cancer; test: Curative effect test against murine Lewis lung cancer (hypodermically inoculated) by intravenous administration of a triacontanol emulsion; type: in vivo, mice; conditions: 7 mg/kg/d
Description: as §1, §2

[5] = test system: intestinal cancer C26; test: Curative effect test against murine intestinal cancer C26 (hypodermically inoculated) by gavaging a 352B oil agent; type: in vivo, mice; conditions: 7 mg/kg/d
Description: as §1, §2

[6] = 100 mg/kg (middle dosage), gavage
[7] = 150 mg/kg (high dosage), gavage
[8] = ipx2, vs negative control group

With `CCCCCCCCCCCCCCCCCCCCCCCCCCCCCCO` [352B, triacontanol] the Spleen index (mg/10 g body weight) ([1]; 50 mg/kg (low dosage), gavage) was 67.1 ± 13.7 mg/10 g body weight, the Thymus index (mg/10 g body weight) ([1]; 50 mg/kg (low dosage), gavage) was 45 ± 6.72 mg/10 g body weight and the “Weight of spleen” value ([1]; 50 mg/kg (low dosage), gavage) was 153.52 ± 35.62 mg. For the same molecule, the “Weight of thymus” value ([1]; 50 mg/kg (low dosage), gavage) was 102.14 ± 15.90 mg, the Spleen index (mg/10 g body weight) [1, 6] was 62.1 ± 17.5 mg/10 g body weight and the Thymus index (mg/10 g body weight) [1, 6] was 38.7 ± 8.08 mg/10 g body weight. The “Weight of spleen” value [1, 6] was 139.98 ± 41.62 mg, the “Weight of thymus” value [1, 6] was 86.87 ± 16.44 mg and the Spleen index (mg/10 g body weight) [1, 7] was 65.7 ± 12.3 mg/10 g body weight. The Thymus index (mg/10 g body weight) [1, 7] was 37.7 ± 6.73 mg/10 g body weight, the “Weight of spleen” value [1, 7] was 151.26 ± 32.16 mg and the “Weight of thymus” value [1, 7] was 86.86 ± 16.14 mg. For the same molecule, the “effect to the important immune organ (thymus and spleen)” value ([1]; summary in words) was “hasn't obvious effect to the important immune organ”, the “Weight (g) After administration” value ([2]; 50 mg/kg (low dosage), gavage) was 23.51 ± 1.99 g and the “Weight of the tumor” value ([2]; 50 mg/kg (low dosage), gavage) was 0.72 ± 0.38 g. The “Inhibition rate (%)” value ([2]; 50 mg/kg (low dosage), gavage, compared with the menstruum control group) was 48.13%, the “Weight (g) After administration” value [2, 6] was 23.20 ± 2.86 g and the “Weight of the tumor” value [2, 6] was 0.57 ± 0.28 g. For the same molecule, the “Inhibition rate (%)” value ([2]; 100 mg/kg (middle dosage), gavage, compared with the menstruum control group) was 58.95%, the “Weight (g) After administration” value [2, 7] was 23.52 ± 2.36 g and the “Weight of the tumor” value [2, 7] was 0.49 ± 0.25 g. For the same molecule, the “Inhibition rate (%)” value ([2]; 150 mg/kg (high dosage), gavage, compared with the menstruum control group) was 64.59% and the “antitumor effect (summary in words)” value ([3]; summary of the above tests (H22, Lewis lung cancer, C26)) was “prominent antitumor effect”.

With `N.N.[Cl][Pt][Cl]` [DDP] the Spleen index (mg/10 g body weight) ([1]; 0.001 mg/kg) was 46 ± 8.18 mg/10 g body weight, the Thymus index (mg/10 g body weight) ([1]; 0.001 mg/kg) was 30.7 ± 8.06 mg/10 g body weight and the “Weight of spleen” value ([1]; 0.001 mg/kg) was 88.90 ± 27.79 mg. For the same molecule, the “Weight of thymus” value ([1]; 0.001 mg/kg) was 59.61 ± 22.45 mg, the “Weight of the tumor” value ([2]; 0.001 mg/kg) was 0.31 ± 0.19 g and the “Inhibition rate (%)” value ([2]; 0.001 mg/kg, compared with the NS control group) was 79.76%. The “Weight of the animal (g) at last” value ([3]; 7 mg/kg/d, igx2) was 21.4/25.4 g, the “Weight of the tumor (g) X ± SD” value ([3]; 7 mg/kg/d, igx2) was 1.269 ± 0.13 g and the Inhibition rate (%) ([3]; 7 mg/kg/d, igx2, vs negative control group) was 91.0%. For the same molecule, the “Weight of the animal (g) at last” value ([4]; ipx2) was 19.2/20.9 g, the “Weight of the tumor (g) X ± SD” value ([4]; ipx2) was 0.278 ± 0.14 g and the Inhibition rate (%) [4, 8] was 89.00%. For the same molecule, the “Weight of the animal (g) at last” value ([5]; ipx2) was 19.1/24.1 g, the “Weight of the tumor (g) X ± SD” value ([5]; ipx2) was 0.346 ± 0.13 g and the Inhibition rate (%) [5, 8] was 86.99%.
